Experimental data from patent US11970496B1, “Pyrrolo[3,2-c]quinoline compounds as CK2 inhibitors” (KING FAISAL UNIVERSITY, priority 2023, dated 2024).
pIC50: −log10 of the molar value.

Experiments:
[1] = biological target: T1, recombinant human CK2 (RRββ-holoenzyme) (Homo sapiens, UniProt P68400); experiment: CK2 Kinase Assay (33P-ATP, substrate peptide RRRDDDSDDD); assay type: biochemical; conditions: final ATP concentration 15 μM, 10 min at 30° C.; read-out: protein kinase CK2 IC50
T1 construct: purchased Millipore
T1 sequence (P68400 whole entry): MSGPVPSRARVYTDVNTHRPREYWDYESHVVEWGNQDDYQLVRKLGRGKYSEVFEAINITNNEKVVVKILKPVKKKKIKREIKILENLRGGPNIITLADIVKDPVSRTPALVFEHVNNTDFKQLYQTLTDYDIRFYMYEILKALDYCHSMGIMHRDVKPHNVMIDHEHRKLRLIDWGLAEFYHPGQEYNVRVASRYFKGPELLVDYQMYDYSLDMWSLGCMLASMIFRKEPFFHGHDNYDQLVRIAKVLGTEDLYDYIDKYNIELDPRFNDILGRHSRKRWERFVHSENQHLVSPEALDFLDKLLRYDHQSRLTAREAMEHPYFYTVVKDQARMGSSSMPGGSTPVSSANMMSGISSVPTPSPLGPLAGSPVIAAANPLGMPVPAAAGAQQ
T1 sequence (P67870 whole entry partner): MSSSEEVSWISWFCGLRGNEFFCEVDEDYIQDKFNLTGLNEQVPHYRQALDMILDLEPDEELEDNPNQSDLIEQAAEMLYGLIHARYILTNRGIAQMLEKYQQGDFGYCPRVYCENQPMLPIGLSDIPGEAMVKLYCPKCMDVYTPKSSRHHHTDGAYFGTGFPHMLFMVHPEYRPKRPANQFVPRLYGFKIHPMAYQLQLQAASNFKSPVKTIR
Description: CK2 Kinase Assay was conducted using the protocol as described in Pierre F. et al; J. Med. Chem. 2011, 54, 635-654. The tested compounds in aqueous solution were added at a volume of 10 μL to a reaction mixture comprising 10 μL of assay dilution buffer (ADB; 20 mM MOPS, pH 7.2, 25 mM (3-glycerol phosphate, 5 mM EGTA, 1 mM sodium orthovanadate, and 1 mM dithiothreitol), 10 μL of substrate peptide (RRRDDDSDDD, dissolved in ADB at a concentration of 1 mM), 10 μL of recombinant human CK2 (RRββ-holoenzyme, 25 ng dissolved in ADB; Millipore). Reactions were initiated by the addition of 10 μL of ATP solution (90% 75 mMMgCl2, 75 μM ATP (final ATP concentration: 15 μM) dissolved in ADB; 10% [γ-33P] ATP (stock 1 mCi/100 μL; 3000 Ci/mmol (Perkin-Elmer) and maintained for 10 min at 30° C. The reactions were quenched with 100 μL of 0.75% phosphoric acid and then transferred to and filtered through a phosphor cellulose filter plate (Millipore). After washing each well five times with 0.75% phosphoric acid, the plate was dried under vacuum for 5 min and, following the addition of 15 μL of scintillation fluid to each well, the residual radioactivity was measured using a Wallac […]. The IC50 values were derived from eight concentrations of test inhibitors.

MDA-MB-231 (breast) = experiment: In vitro cytotoxic activity assay (MTT), MDA-MB-231; assay type: cell-based; conditions: Homo sapiens; MDA-MB-231 cells, exposed for 96 hours; read-out: IC50, 50% inhibition of cell proliferation, MDA-MB-231 (breast)
Description: (§1) Compounds 1-12 were screened for their in vitro cytotoxic activity utilizing a 3-(4,5-dimethyl-thiazol-2-yl)-2,5-diphenyltetrazolium bromide (MTT) assay against selected cancer human cell lines consisting of PC3 (prostate), HCT116 (colon), A375 (melanoma), H1299 (lung), MIAPaCa-2 (pancreas), HL60 (leukemia), MCF7 (breast), MDA-MB-231 (breast) (T. Mosmann, J. Immunol. Meth., 1983, 65, 55-63). The cells were cultured at 37° C. in RMPI1640 medium supplemented with 10% fetal bovine serum, 50 IU/mL penicillin, and 50 μg/mL streptomycin in a 5% CO2 incubator. All cells were sub-cultured 3 times/week by trypsinisation. Viable cells were seeded and allowed to adhere for 12 h before a test drug was added in 96-well plates at an initial density of 1.0×10^5 cells/mL. Tumour cell lines were separately exposed to various concentrations of the tested compounds followed by incubation at a temperature of 37° C. during 96 h inside a medium of fresh RMPI 1640. Cells were subsequently incubated at 37° C. using MTT at 0.5 mg/mL during 4 h. After removal of supernatant, formazan crystals were dissolved in isopropanol and the optical density was measured at 570 nm. CX-4945 was used as a positive control.

PC3 (prostate) = experiment: In vitro cytotoxic activity assay (MTT), PC3; assay type: cell-based; conditions: Homo sapiens, PC-3; PC3 cells, exposed for 96 hours; read-out: IC50, 50% inhibition of cell proliferation, PC3 (prostate)
Description: as §1

H1299 (lung) = experiment: In vitro cytotoxic activity assay (MTT), H1299; assay type: cell-based; conditions: Homo sapiens, NCI-H1299; H1299 cells, exposed for 96 hours; read-out: IC50, 50% inhibition of cell proliferation, H1299 (lung)
Description: as §1

HCT116 (colon) = experiment: In vitro cytotoxic activity assay (MTT), HCT116; assay type: cell-based; conditions: Homo sapiens, HCT-116; HCT116 cells, exposed for 96 hours; read-out: IC50, 50% inhibition of cell proliferation, HCT116 (colon)
Description: as §1

A375 (melanoma) = experiment: In vitro cytotoxic activity assay (MTT), A375; assay type: cell-based; conditions: Homo sapiens, A-375; A375 cells, exposed for 96 hours; read-out: IC50, 50% inhibition of cell proliferation, A375 (melanoma)
Description: as §1

MIAPaCa-2 (pancreas) = experiment: In vitro cytotoxic activity assay (MTT), MIAPaCa-2; assay type: cell-based; conditions: Homo sapiens, MIA PaCa-2; MIAPaCa-2 cells, exposed for 96 hours; read-out: IC50, 50% inhibition of cell proliferation, MIAPaCa-2 (pancreas)
Description: as §1

HL60 (leukemia) = experiment: In vitro cytotoxic activity assay (MTT), HL60; assay type: cell-based; conditions: Homo sapiens, HL-60; HL60 cells, exposed for 96 hours; read-out: IC50, 50% inhibition of cell proliferation, HL60 (leukemia)
Description: as §1

MCF7 (breast) = experiment: In vitro cytotoxic activity assay (MTT), MCF7; assay type: cell-based; conditions: Homo sapiens; MCF7 cells, exposed for 96 hours; read-out: IC50, 50% inhibition of cell proliferation, MCF7 (breast)
Description: as §1

## O=C(O)c1ccc2c(c1)nc(Nc1cccc(Cl)c1)c1cc(C(=O)O)[nH]c12 [Compound 1, 4-((3-chlorophenyl)amino)-1H-pyrrolo[3,2-c]quinoline-2,7-dicarboxylic acid]
[1]
  pIC50: 7.43
MDA-MB-231 (breast)
  pIC50: 5.46
PC3 (prostate)
  pIC50: 5.74
H1299 (lung)
  pIC50: 5.80
HCT116 (colon)
  pIC50: 5.72
A375 (melanoma)
  pIC50: 5.66
MIAPaCa-2 (pancreas)
  pIC50: 5.89
HL60 (leukemia)
  pIC50: 5.54
MCF7 (breast)
  pIC50: 5.36
